Laboratory results: patent publication US20130245081A1, “Compositions and Methods for Treating Amyotrophic Lateral Sclerosis” (priority 2009, published 2013)

Legend:
dogs = conditions: single oral dose; cited from earlier work
rodents [1] = conditions: single oral dose; cited from earlier work
human subjects = conditions: in vivo; cited from earlier work
monkeys = conditions: single oral dose; cited from earlier work
rodents [2] = assay: Single dose toxicity after oral administration, rodents; conditions: in vivo
patients with ALS = conditions: Part 1

Row | Structure (SMILES) | dose at which vomiting occurred (dogs) [mg/kg] | doses at which death occurred (rodents [1]) [mg/kg] | dose shown to cause somnolence in humans (human subjects) [mg] | initial single dose not tolerated (human subjects) | maximally tolerated dose for humans (Mirapex product insert) (human subjects) [mg/day] | dose at which major excitation was displayed (monkeys) [mg/kg] | human dose equivalent to the lethal rodent dose (rodents [2]) [mg/kg] | human dose equivalent to the lethal rodent dose for a 70 kg individual (rodents [2]) [mg] | effect of riluzole on change from baseline in ALSFRS-R scores (patients with ALS; across all treatment groups) | mean change from baseline to study endpoint in ALSFRS-R score (patients with ALS; placebo with riluzole)
1 | CCCN[C@H]1CCc2nc(N)sc2C1 [pramipexole, (6S)-2-amino-4,5,6,7-tetrahydro-6-(propylamino)benzothiazole] | ≥ 0.0007 | 70 to 105 | 1.5 | greater than 0.20 mg | 4.5 | 3.5 | 7 to 12 | 500 to 850 |  | 
2 | Nc1nc2ccc(OC(F)(F)F)cc2s1 [riluzole, reference compound] |  |  |  |  |  |  |  |  | no effect | −3.6
